Reference: patent US10028506B2, “Plant strengthener comprising a tocopherol and a boron compound” (COMPO EXPERT GMBH, priority 2013, dated 2018)

Tests used:
Type in all cases: in vivo
[1] = system: apple trees cv. "Granny Smith" fruits; test: Protection against sun-scorch, field experiments on apples; settings: dilute aqueous preparation (0.25 kg/ha); apples field experiment
Procedure: For the field experiments, the formulations were diluted with tap water in an amount of 100 l per kg of formulation. The plants were sprayed with the aqueous dilution with the aid of a commercially available plant protection sprayer at an application rate of 0.25 kg tocopherol/ha. The study was carried out in an apple plantation in South Africa (Somerset-West region) in February. To this end, apple trees cv. “Granny Smith” were sprayed with an aqueous dilution of formulation F2 or formulation FV2 8 days before the harvest in two adjacent plots, in parallel experiments. The controls used were in each case untreated trees of the same plot. To determine the damage, in each case approximately 30 fruits were harvested from each tree of the treated trees and of the untreated trees and then observed. The proportion of damaged fruits of the treated trees and of the untreated trees of the respective experiment was determined, and the percentage reduction in damage was determined on this basis. Damage was considered to be reddish and brownish discolorations of the fruit skin.

[2] = system: sweet cherry (variety Hedelfinger) inflorescences, severed branches; test: Frost protection activity on sweet cherry inflorescences in frost chamber; settings: dilute aqueous preparation (0.25 kg/ha), −2° C. for 4 hours
Procedure: (§1) For the following studies, tocopherol-comprising formulations were diluted with water to give a tocopherol concentration of 0.25% by weight.
(§2) Boroethanolamine was diluted with water to give a concentration of 0.25% by weight.
(§3) Freshly severed branches with 20 to 50 inflorescences (inflorescence stage BBCH 60-69) were used for studying the protection of inflorescences. The twigs were sprayed to runoff point with the aqueous dilution of the respective formulation, using a hand-held sprayer.
(§4) The tests of the formulations in respect of their frost protectant activity were carried out under controlled conditions in frost chambers with fruit-tree inflorescences (apple (variety Elstar), severed branches, sweet cherry (variety Hedelfinger), severed branches).
(§5) The fruit trees were treated 24 hours before the frost event by spraying the inflorescences with the dilute formulation.
(§6) (b) Treatment with formulation FV1 (0.25 g/l tocopherol),
(§7) (c) Treatment with formulation F1 (0.25 g/l tocopherol)+0.25 g/l boroethanolamine).
(§8) The branches were severed from the plant shortly before the test and then exposed to a temperature of −2° C. for a defined period (4 hours). On the following day, the relative number of the inflorescences with frost damage was determined visually. Damage was considered to be browning of the floral tissue (pedicel and ovaries).

[3] = system: apple (variety Elstar) inflorescences, severed branches; test: Frost protection activity on apple inflorescences in frost chamber; settings: dilute aqueous preparation (0.25 kg/ha), −2° C. for 4 hours
Procedure: as §1, §2, §3, §4, §5, §6, §7, §8

[4] = system: tangerine trees cv. "satsuma" fruits; test: Protection against sun-scorch, field experiments on tangerines (satsumas); settings: dilute aqueous preparation (0.25 kg/ha); tangerines field experiment
Procedure: For the field experiments, the formulations were diluted with tap water in an amount of 100 l per kg of formulation. The plants were sprayed with the aqueous dilution with the aid of a commercially available plant protection sprayer at an application rate of 0.25 kg tocopherol/ha. The study was carried out in a fruit plantation in South Africa (Western Cape region, Simondium) in February. To this end, tangerine trees cv. “satsuma” were sprayed with an aqueous dilution of formulation F2 or formulation FV2 6 days before the harvest in two adjacent plots, in parallel experiments. The controls used were in each case untreated trees of the same plot. To determine the damage, in each case approximately 30 fruits were harvested from each tree of the treated trees and of the untreated trees and then observed. The proportion of damaged fruits of the treated trees and of the untreated trees of the respective experiment was determined, and the percentage reduction in damage was determined on this basis. Damage was considered to be yellowish discolorations of the green fruit skin.

NCCOB(O)O [boroethanolamine]
no significant change over the control: change in sun-scorch damage over the control [1] | change in frost damage over the control [2] | change in frost damage over the control [3] | change in sun-scorch damage over the control [4]
